From patent publication US8580959B2, “Azolotriazinone melanin concentrating hormone receptor-1 antagonists” (Bristol-Myers Squibb Company, priority 2008, dated 2013) come the findings set out here.

The test system of one assay is Male SPRAGUE DAWLEY rats. Kind of assay: Assessment of in vivo MCHR activity (body weight, rats with choice of chow and high fat high sugar diet). On the set-up: species or system rat. The following applies: dose 30 mg/kg p.o. daily day 0 through day 4, rats; parent dosed as its prodrug example (22, 63, 50). How it is done:
Assessment of In Vivo MCHR Activity
Male SPRAGUE DAWLEY® (CD, Charles River Breeding Laboratory) rats weighing approximately 240 grams were place in individual plastic cages with ALPHADRI® bedding. The room was maintained at 72° F. and 50% humidity, and a 12/12 light dark cycle with lights out at 1600 hours. The rats were conditioned for 5 days prior to the start of the study to having a choice of foods. A normal chow (HARLAN TEKLAD®, 2018) that contains 18% protein, 5% fat and 73% carbohydrate and a high fat high sugar diet (Research Diets (D2327)) that contains 20% protein, 40% fat and 40% carbohydrate where the carbohydrate is entirely sucrose and the fat is soybean and coconut oil. […] Body weight and consumption of both kinds of food as well as water intake were measured daily. Water was available ad lib throughout the study. Food consumption is presented as daily caloric consumption which is the sum of grams of chow multiplied by the Kcal per gram (3.5) plus grams of high fat high sugar multiplied by Kcal per gram (4.59).
Baseline body weight was measured prior to drug treatment on day 0 of the study. Baseline food consumption was the average of the 3 days prior to the first drug treatment. Drug was administered daily p.o. at 2.0 ml/kg at 1500 hours beginning on day 0 and continuing daily through day 4 as a suspension in 0.5% methyl cellulose, 0.1% Tween 80 in water at 3.0, 10 and 30 mg/kg p.o. All data were evaluated using ANOVA and Fishers PLSD statistics.

Assay [1] concerns the target T1, mutated (E4Q, A5T) hMCHR1 receptor (Homo sapiens, UniProt Q99705, A5T/E4Q).
T1 construct: expressed in transfected cells; host or cells: HEK-293 (stably transfected), membranes
Kind of assay: Radioligand binding assay for assessment of MCHR1 activity (human). The following applies: membranes of HEK-293 cells, [Phe13,[125I]Tyr19]-MCH competition. How it is done:
Radioligand Binding Assay for Assessment of MCHR1 Activity
Membranes from stably transfected HEK-293 cells expressing a mutated (E4Q, A5T) hMCHR1 receptor were prepared by dounce homogenization and differential centrifugation. Binding experiments were carried out with 0.5-1.0 ug of membrane protein incubated in a total of 0.2 ml in 25 mM HEPES (pH 7.4) with 10 mM MgCl2, 2 mM EGTA, and 0.1% BSA (Binding Buffer) for 90 min. […] Filters were dried, 0.05 ml microscint 20 was added to each well and radioactivity was subsequently quantified by scintillation counting on a TOPCOUNT® microplate scintillation counter (Packard). Inhibitory constants were determined by nonlinear least squares analysis using a four parameter logistic equation.

The target of a further assay is MCHR1 Rat (Rattus norvegicus, UniProt P97639). Kind of assay: MCHR1 rat binding (radioligand binding assay).
Sequence of MCHR1 Rat (P97639 whole entry): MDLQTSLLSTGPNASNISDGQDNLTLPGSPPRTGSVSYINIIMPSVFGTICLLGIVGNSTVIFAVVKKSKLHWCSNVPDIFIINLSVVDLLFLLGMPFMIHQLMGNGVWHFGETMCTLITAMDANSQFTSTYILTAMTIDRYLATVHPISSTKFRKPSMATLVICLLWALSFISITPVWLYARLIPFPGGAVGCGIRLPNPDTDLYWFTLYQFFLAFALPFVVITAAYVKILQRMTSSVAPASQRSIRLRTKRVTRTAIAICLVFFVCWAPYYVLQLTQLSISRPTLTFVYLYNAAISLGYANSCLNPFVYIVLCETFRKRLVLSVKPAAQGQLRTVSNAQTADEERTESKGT

pKi: −log10 of the molar value. Where a name gives a salt, the structure may show the parent alone.

T1 sequence (Q99705 whole entry E4Q/A5T): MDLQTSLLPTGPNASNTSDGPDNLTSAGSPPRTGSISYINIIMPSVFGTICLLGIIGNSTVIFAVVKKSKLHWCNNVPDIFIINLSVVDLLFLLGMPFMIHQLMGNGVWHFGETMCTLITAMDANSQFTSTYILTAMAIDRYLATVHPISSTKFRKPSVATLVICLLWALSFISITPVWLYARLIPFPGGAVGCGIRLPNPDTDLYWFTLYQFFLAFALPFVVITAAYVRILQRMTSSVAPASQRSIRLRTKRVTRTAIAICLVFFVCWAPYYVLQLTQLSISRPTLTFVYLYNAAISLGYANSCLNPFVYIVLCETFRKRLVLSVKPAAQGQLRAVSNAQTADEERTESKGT

For the compound “6-(4-Chlorophenyl)-3-(4-(2-hydroxy-2-methylpropoxy)-3-methoxyphenyl)pyrrolo[1,2-f][1,2,4]triazin-4(3H)-one [Example 1]”, the “% Weight Reduction versus Vehicle” value in the assay on Male SPRAGUE DAWLEY rats is recorded as 6.9%. The pKi is the negative decadic logarithm of the Ki, by convention in mol/L. A higher pKi goes with a small Ki. Turning to `COc1cc(-n2cnn3cc(-c4ccc(Cl)cc4)cc3c2=O)ccc1OCC(C)(C)O` [Example 1, 6-(4-Chlorophenyl)-3-(4-(2-hydroxy-2-methylpropoxy)-3-methoxyphenyl)pyrrolo[1,2-f][1,2,4]triazin-4(3H)-one], the pKi in assay [1] is 8.35; on MCHR1 Rat, 8.56.

As for `COc1ccc(-n2cnn3cc(-c4ccc(Cl)cc4)cc3c2=O)cc1OC` [Example 2, 6-(4-Chlorophenyl)-3-(3,4-dimethoxyphenyl)pyrrolo[1,2-f][1,2,4]triazin-4(3H)-one], the negative logarithm of the Ki (pKi) in assay [1] was 7.67; on MCHR1 Rat, 8.08. As to `COc1cc(-n2cnn3cc(-c4ccc(Cl)cc4)cc3c2=O)ccc1OCC(O)C1CC1` (centres unmarked) [Example 3, 6-(4-Chlorophenyl)-3-(4-(2-cyclopropyl-2-hydroxyethoxy)-3-methoxyphenyl)pyrrolo[1,2-f][1,2,4]triazin-4(3H)-one], the pKi in assay [1] is 8.35; on MCHR1 Rat, 8.55.

`COc1cc(-n2cnn3cc(-c4ccc(Cl)cc4)cc3c2=O)ccc1OCCN1CCCC1` [Example 4, 6-(4-Chlorophenyl)-3-(3-methoxy-4-(2-(pyrrolidin-1-yl)ethoxy)phenyl)pyrrolo[1,2-f][1,2,4]triazin-4(3H)-one]: the results for the pKi (in assay [1]; on MCHR1 Rat) were 9.28 and 9.15, respectively. Consider `COc1cc(-n2cnn3nc(-c4ccc(Cl)cc4)cc3c2=O)ccc1OCCN1CCC(O)C1` (centres unmarked) [Example 6, 6-(4-Chlorophenyl)-3-(4-(2-(3-hydroxypyrrolidin-1-yl)ethoxy)-3-methoxyphenyl)pyrazolo[1,5-f][1,2,4]triazin-4(3H)-one], for which the pKi in assay [1] was 8.66; on MCHR1 Rat, 9.10.

The compound `COc1cc(-n2cnn3cc(-c4ccc(Cl)cc4)cc3c2=O)ccc1OCC(C)N1CCCC1` (centres unmarked) [Example 13, 6-(4-Chlorophenyl)-3-[3-methoxy-4-(2-pyrrolidin-1-yl-propoxy)-phenyl]-3H-pyrrolo[2,1-f] [1,2,4]triazin-4-one] had a pKi in assay [1] of 9.77. Compound `O=c1c2cc(-c3ccc(Cl)cc3)cn2ncn1-c1ccc(N2CCC(O)CC2)nc1` [Example 18, 6-(4-Chlorophenyl)-3-(6-(4-hydroxypiperidin-1-yl)pyridin-3-yl)pyrrolo[1,2-f][1,2,4]triazin-4(3H)-one] showed a pKi in assay [1] of 7.94. Same read-out and setting: under `O=c1c2cc(-c3ccc(Cl)cn3)cn2ncn1-c1ccc(N2CC[C@@H](O)C2)nc1` [Example 31, 6-(5-Chloropyridin-2-yl)-3-[6-(3-hydroxy-pyrrolidin-1-yl)-pyridin-3-yl]-3H-pyrrolo[2,1-f][1,2,4]triazin-4-one] stands 6.91.

`COc1cc(-n2cnn3cc(-c4ccc(Cl)cn4)cc3c2=O)ccc1OCC(C)(C)O` [Example 33, 6-(5-Chloropyridin-2-yl)-3-[4-(2-hydroxy-2-methyl-propoxy)-3-methoxy-phenyl]-3H-pyrrolo[2,1-f][1,2,4]triazin-4-one]: the “% Weight Reduction versus Vehicle” value in the assay on Male SPRAGUE DAWLEY rats is on record as 11.2%. The compound `COc1ccc(-n2cnn3cc(-c4ccc(Cl)cc4)nc3c2=O)cc1OC` [Example 38, 6-(4-Chlorophenyl)-3-(3,4-dimethoxy-phenyl)-3H-imidazo[2,1-f][1,2,4]triazin-4-one] had a pKi in assay [1] of 7.12. `COc1cc(-n2cnn3cc(-c4ccc(Cl)cn4)cc3c2=O)ccc1OCC1(O)CC(F)(F)C1` [Example 46, 6-(5-Chloropyridin-2-yl)-3-(4-((3,3-difluoro-1-hydroxycyclobutyl)methoxy)-3-methoxyphenyl)pyrrolo[1,2-f][1,2,4]triazin-4(3H)-one-4(3H)-one]: the “% Weight Reduction versus Vehicle” value in the assay with Male SPRAGUE DAWLEY rats is 2.6%. Take `COc1cc(-n2cnn3cc(-c4ccc(Cl)cc4)cc3c2=O)ccc1N1C[C@H](OC(=O)[C@@H](N)C(C)C)[C@H](OC(=O)[C@@H](N)C(C)C)C1` [Example 56, (2S,2′S)-((3S,4R)-1-(4-(6-(4-Chlorophenyl)-4-oxopyrrolo[1,2-f][1,2,4]triazin-3(4H)-yl)-2-methoxyphenyl)pyrrolidine-3,4-diyl)bis(2-amino-3-methylbutanoate), 2TFA]: in assay [1], the negative logarithm of the Ki (pKi) was 8.03. The same measure, in the same setting: under `COc1cc(-n2cnn3cc(-c4ncc(Cl)cn4)cc3c2=O)ccc1OCC1(O)CC(F)(F)C1` [Example 57, 6-(5-Chloropyrimidin-2-yl)-3-(4-((3,3-difluoro-1-hydroxycyclobutyl)methoxy)-3-methoxyphenyl)pyrrolo[1,2-f][1,2,4]triazin-4(3H)-one] stands 8.05.

With `CCS(=O)(=O)C[C@H](COc1ccc(-n2cnn3cc(-c4ncc(Cl)cn4)cc3c2=O)cc1OC)OC(=O)CN` [Example 61, (S)-1-(4-(6-(5-Chloropyrimidin-2-yl)-4-oxopyrrolo[1,2-f][1,2,4]triazin-3(4H)-yl)-2-methoxyphenoxy)-3-(ethylsulfonyl)propan-2-yl 2-aminoacetate, TFA], the pKi in assay [1] was 6.90.
